Each structure is given as a SMILES string.

For the assay, the target named is T1, MDMX (Homo sapiens, UniProt O15151).
T1 construct: gene MDM4
T1 sequence (O15151 1-120): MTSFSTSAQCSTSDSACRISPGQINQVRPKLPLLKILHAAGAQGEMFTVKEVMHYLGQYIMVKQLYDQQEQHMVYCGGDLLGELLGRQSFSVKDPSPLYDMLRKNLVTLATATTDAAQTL
Kind of assay: ITC; MALDI-TOF MS of covalent adducts, no reducing agent. In kind it is binding. Background: In ITC the heat of successive injections is recorded.

In general, Kd refers to the free concentration of one partner at which half of the binding sites on the other are occupied at equilibrium, for simple one-to-one binding. A lower Kd goes with a tighter complex. `CCOc1cc(/C=C2\C(=O)N(c3ccccc3)N=C2C)cc(Cl)c1OCC(=O)OC` [compound 1, SJ-172550]: the Kd is greater than 13 µM.

For the origin of these results see paper PMC6198280, “Chemical Instability and Promiscuity of Arylmethylidenepyrazolinone-Based MDMX Inhibitors” (ACS Chemical Biology, 2018).
